Assay results reported in article PMC9882114 (bioRxiv, 2024).

Tests used:
Type in all cases: biochemical
iNicSnFR12-S467R = experiment: Nicotine-induced fluorescence increase of purified iNicSnFR12-S467R, Hill fit; conditions: read-out: EC50 (nicotine-induced fluorescence, iNicSnFR12-S467R); SEM, n = 3
iNicSnFR11 = experiment: Fluorescence dose-response relations of nicotinic drugs at purified iNicSnFR11; conditions: purified iNicSnFR11 100 nM, 3×PBS pH 7.40, Hill fit
iNicSnFR12 [1] = experiment: Fluorescence dose-response relations of nicotinic drugs at purified iNicSnFR12
iNicSnFR12 [2] = conditions: read-out: EC50, μM (Figure 1B, 1C, purified sensors); n = 3

Question: CN1CCC[C@H]1c1cccnc1 [nicotine] was tested. Which EC50 (iNicSnFR12-S467R) did it give?
Answer: The EC50 was 25.6 µM.

Question: Which results are given for C[N+](C)(C)CCO [choline]?
Answer: EC50 (iNicSnFR11): ~170 µM; expected activation at iNicSnFR12 (iNicSnFR12 [1]; [choline] 1 μM as in 10% rat serum): at most 1%; expected activation at iNicSnFR12 (iNicSnFR12 [1]; [choline] 2.5 μM as in 25% human serum): ≤ 2.5%; EC50 (iNicSnFR12 [2]): ≥ 100 µM
